# Reference: ChEMBL document CHEMBL1201862, “PubChem BioAssay data set” (2004)
#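 Grown in 96-well plates, cells were treated for 48 hours with each compound at five concentrations. Insufficient inhibition: endpoint recorded as highest concentration tested. GI50: concentration for 50% inhibition of growth.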 Calls of active or inactive are those of the source. No stated cut-off is given here; in the data, active = GI50 up to about 1.1 µM and inactive = higher.
# Assays:
# Assay in all cases: NCI-60 cell line screen, 48 h
# 786-0 = system: 786-0
# A498 = system: A498
# A549 = system: A549
# ACHN = system: ACHN
# BT-549 = system: BT-549
# CCRF-CEM = system: CCRF-CEM
# COLO 205 = system: COLO 205
# DU-145 = system: DU-145
# EKVX = system: EKVX
# HCC 2998 = system: HCC 2998
# HCT-116 = system: HCT-116
# HCT-15 = system: HCT-15
# HL-60 = system: HL-60
# HOP-62 = system: HOP-62
# HT-29 = system: HT-29
# Hs-578T = system: Hs-578T
# K562 = system: K562
# KM12 = system: KM12
# LOX IMVI = system: LOX IMVI
# M14 = system: M14
# MDA-MB-435 = system: MDA-MB-435
# MOLT-4 = system: MOLT-4
# Malme-3M = system: Malme-3M
# NCI-H226 = system: NCI-H226
# NCI-H23 = system: NCI-H23
# NCI-H460 = system: NCI-H460
# NCI-H522 = system: NCI-H522
# NCI/ADR-RES = system: NCI/ADR-RES
# OVCAR-3 = system: OVCAR-3
# OVCAR-4 = system: OVCAR-4
# OVCAR-5 = system: OVCAR-5
# OVCAR-8 = system: OVCAR-8
# PC-3 = system: PC-3
# RPMI-8226 = system: RPMI-8226
# RXF 393 = system: RXF 393
# SF-268 = system: SF-268
# SF-295 = system: SF-295
# SF-539 = system: SF-539
# SK-MEL-28 = system: SK-MEL-28
# SK-MEL-2 = system: SK-MEL-2
# SK-MEL-5 = system: SK-MEL-5
# SK-OV-3 = system: SK-OV-3
# SNB-19 = system: SNB-19
# SNB-75 = system: SNB-75
# SR = system: SR
# SW-620 = system: SW-620
# T47D = system: T47D
# TK-10 = system: TK-10
# U-251 = system: U-251
# UACC-257 = system: UACC-257
# UACC-62 = system: UACC-62
# UO-31 = system: UO-31
# CAKI-1 = system: CAKI-1
# IGROV-1 = system: IGROV-1
# MCF7 = system: MCF7
# MDA-MB-231 = system: MDA-MB-231
# SN12C = system: SN12C
smiles,measurement,setting,value
COc1cc2cc(C(=O)N3CC(CCl)c4c3cc(O)c3ccccc43)[nH]c2c(OC)c1OC (stereo not given),GI50,786-0,< 5 nM (active)
same,GI50,A498,< 5 nM (active)
same,GI50,A549,< 5 nM (active)
same,GI50,ACHN,< 5 nM (active)
same,GI50,BT-549,< 5 nM (active)
same,GI50,CCRF-CEM,< 5 nM (active)
same,GI50,COLO 205,< 5 nM (active)
same,GI50,DU-145,< 5 nM (active)
same,GI50,EKVX,< 5 nM (active)
same,GI50,HCC 2998,< 5 nM (active)
same,GI50,HCT-116,< 5 nM (active)
same,GI50,HCT-15,< 5 nM
same,GI50,HL-60,< 5 nM (active)
same,GI50,HOP-62,< 5 nM (active)
same,GI50,HT-29,< 5 nM (active)
same,GI50,Hs-578T,< 5 nM (active)
same,GI50,K562,< 5 nM (active)
same,GI50,KM12,< 5 nM (active)
same,GI50,LOX IMVI,< 5 nM (active)
same,GI50,M14,< 5 nM (active)
same,GI50,MDA-MB-435,< 5 nM (active)
same,GI50,MOLT-4,< 5 nM (active)
same,GI50,Malme-3M,< 5 nM (active)
same,GI50,NCI-H226,< 5 nM (active)
same,GI50,NCI-H23,< 5 nM (active)
same,GI50,NCI-H460,< 5 nM (active)
same,GI50,NCI-H522,< 5 nM (active)
same,GI50,NCI/ADR-RES,< 5 nM (active)
same,GI50,OVCAR-3,< 5 nM (active)
same,GI50,OVCAR-4,< 5 nM (active)
same,GI50,OVCAR-5,< 5 nM (active)
same,GI50,OVCAR-8,< 5 nM (active)
same,GI50,PC-3,< 5 nM (active)
same,GI50,RPMI-8226,< 5 nM (active)
same,GI50,RXF 393,< 5 nM (active)
same,GI50,SF-268,< 5 nM (active)
same,GI50,SF-295,< 5 nM (active)
same,GI50,SF-539,< 5 nM (active)
same,GI50,SK-MEL-28,< 5 nM (active)
same,GI50,SK-MEL-2,< 5 nM (active)
same,GI50,SK-MEL-5,< 5 nM (active)
same,GI50,SK-OV-3,< 5 nM (active)
same,GI50,SNB-19,< 5 nM (active)
same,GI50,SNB-75,< 5 nM (active)
same,GI50,SR,< 5 nM (active)
same,GI50,SW-620,< 5 nM (active)
same,GI50,T47D,< 5 nM (active)
same,GI50,TK-10,< 5 nM (active)
same,GI50,U-251,< 5 nM (active)
same,GI50,UACC-257,< 5 nM (active)
same,GI50,UACC-62,< 5 nM (active)
same,GI50,UO-31,< 5 nM (active)
NC(CCCCNC(=O)CNC(=O)OCc1ccccc1)C(=O)NC(CCCCNC(=O)CNC(=O)OCc1ccccc1)C(=O)NC(CCCCNC(=O)CNC(=O)OCc1ccccc1)C(=O)NC(CCCCNC(=O)CNC(=O)OCc1ccccc1)C(=O)NC(CCCCNC(=O)CNC(=O)OCc1ccccc1)C(=O)NC(CCCCNC(=O)CNC(=O)OCc1ccccc1)C(=O)O (stereo not given),GI50,786-0,> 75000 nM (inactive)
same,GI50,A498,> 75000 nM (inactive)
same,GI50,A549,> 75000 nM (inactive)
same,GI50,ACHN,> 75000 nM (inactive)
same,GI50,BT-549,> 75000 nM (inactive)
same,GI50,CAKI-1,> 75000 nM (inactive)
same,GI50,CCRF-CEM,> 75000 nM (inactive)
same,GI50,DU-145,> 75000 nM (inactive)
same,GI50,HCC 2998,> 75000 nM (inactive)
same,GI50,HCT-116,> 75000 nM (inactive)
same,GI50,HCT-15,> 75000 nM
same,GI50,HL-60,> 75000 nM (inactive)
same,GI50,HOP-62,> 75000 nM (inactive)
same,GI50,HT-29,> 75000 nM (inactive)
same,GI50,IGROV-1,> 75000 nM (inactive)
same,GI50,K562,> 75000 nM (inactive)
same,GI50,LOX IMVI,> 75000 nM (inactive)
same,GI50,M14,> 75000 nM (inactive)
same,GI50,MCF7,> 75000 nM (inactive)
same,GI50,MDA-MB-231,> 75000 nM (inactive)
same,GI50,MDA-MB-435,> 75000 nM (inactive)
same,GI50,MOLT-4,> 75000 nM (inactive)
same,GI50,Malme-3M,> 75000 nM (inactive)
same,GI50,NCI-H226,> 75000 nM (inactive)
same,GI50,NCI-H23,> 75000 nM (inactive)
same,GI50,NCI-H460,> 75000 nM (inactive)
same,GI50,NCI-H522,16900 nM (inactive)
same,GI50,OVCAR-3,> 75000 nM (inactive)
same,GI50,OVCAR-4,> 75000 nM (inactive)
same,GI50,OVCAR-5,> 75000 nM (inactive)
same,GI50,OVCAR-8,> 75000 nM (inactive)
same,GI50,PC-3,> 75000 nM (inactive)
same,GI50,RPMI-8226,> 75000 nM (inactive)
same,GI50,SF-268,> 75000 nM (inactive)
same,GI50,SK-MEL-28,> 75000 nM (inactive)
same,GI50,SK-MEL-2,> 75000 nM (inactive)
same,GI50,SK-MEL-5,> 75000 nM (inactive)
same,GI50,SN12C,> 75000 nM (inactive)
same,GI50,SNB-19,> 75000 nM (inactive)
same,GI50,SNB-75,> 75000 nM (inactive)
same,GI50,SR,> 75000 nM (inactive)
same,GI50,SW-620,> 75000 nM (inactive)
same,GI50,T47D,> 75000 nM (inactive)
same,GI50,TK-10,> 75000 nM (inactive)
same,GI50,U-251,> 75000 nM (inactive)
same,GI50,UACC-257,> 75000 nM (inactive)
same,GI50,UACC-62,> 75000 nM (inactive)
same,GI50,UO-31,> 75000 nM (inactive)
